Where two headings read alike, the source gives them in different places.
Columns and labels:
NAMPT = NAMPT (Homo sapiens (Human), UniProt P43490); experiment: Assay 1: Biochemical Inhibition Assay (NAMPT enzymatic reaction, NMN quantified by mass spectrometry); details: read-out: Biochemical (IC50);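 also: recombinant His-tagged human NAMPT preincubated with compound 15 min, then reacted 30 min at rt with 1 µM NAM, 100 µM PRPP, 2.5 mM ATP, NMN product read by RapidFire MS, normalized to L-Cystathionine internal standard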
NAMPT, sequence (P43490 whole entry): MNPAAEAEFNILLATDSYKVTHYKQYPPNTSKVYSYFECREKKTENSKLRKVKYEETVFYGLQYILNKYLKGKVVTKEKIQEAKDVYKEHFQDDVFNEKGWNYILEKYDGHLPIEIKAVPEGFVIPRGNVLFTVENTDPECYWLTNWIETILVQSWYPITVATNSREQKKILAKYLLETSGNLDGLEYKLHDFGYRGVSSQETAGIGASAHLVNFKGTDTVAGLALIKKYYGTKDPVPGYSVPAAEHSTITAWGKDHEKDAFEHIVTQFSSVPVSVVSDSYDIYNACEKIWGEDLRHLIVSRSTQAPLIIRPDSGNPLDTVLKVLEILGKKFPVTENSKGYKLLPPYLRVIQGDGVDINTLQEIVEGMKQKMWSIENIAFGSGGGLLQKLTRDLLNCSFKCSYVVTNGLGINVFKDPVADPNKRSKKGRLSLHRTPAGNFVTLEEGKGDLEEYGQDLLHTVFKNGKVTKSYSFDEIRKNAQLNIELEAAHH

A2780 cells = experiment: Assay 2: In-Vitro Cell Proliferation Assay (A2780 cells, SRB readout, 72 hours); format: cell-based; details: A2780 cells, 72 hours, SRB, read-out: Cell Proliferation (IC50);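 also: viable cells counted via sulforhodamine B staining, absorbance at 570 nm, after 72 h exposure at 37 °C, DMSO 0.1% as control, media-only background subtracted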

SMILES | IC50 (NAMPT) [nM] | IC50 (A2780 cells; Homo sapiens, A2780, 72 h) [nM] | IC50 (A2780 cells) [nM]
CC(C)N1CCC(S(=O)(=O)c2ccc(CNC(=O)c3cc4cnccc4[nH]3)cc2)CC1 [Example 340, N-[[4-[(1-isopropyl-4-piperidyl)sulfonyl]phenyl]methyl]-1H-pyrrolo[3,2-c]pyridine-2-carboxamide] | 88.5 | 26.6 | 
CCCN1CCC(S(=O)(=O)c2ccc(CNC(=O)c3cc4ccncc4o3)cc2)CC1 [Example 342, N-[[4-[(1-propyl-4-piperidyl)sulfonyl]phenyl]methyl]furo[2,3-c]pyridine-2-carboxamide] | 20.3 | 23 | 
O=C(NCc1ccc(S(=O)(=O)C2CCN(C(=O)c3ccccc3)CC2)cc1)c1cnc2[nH]ncc2c1 [Example 344, N-[[4-[(1-benzoyl-4-piperidyl)sulfonyl]phenyl]methyl]-1H-pyrazolo[3,4-b]pyridine-5-carboxamide] | 302 | 451 | 
O=C(NCc1ccc(S(=O)(=O)C2CCCN(S(=O)(=O)c3ccccc3)C2)cc1)c1cnc2[nH]ncc2c1 (stereo not shown) [Example 345, N-[[4-[[1-(benzenesulfonyl)-3-piperidyl]sulfonyl]phenyl]methyl]-1H-pyrazolo[3,4-b]pyridine-5-carboxamide] | 118 | 307 | 
O=C(NCc1ccc(S(=O)(=O)C2CCN(S(=O)(=O)c3ccccc3)C2)cc1)c1cnc2[nH]ncc2c1 (stereo not shown) [Example 346, N-[[4-[1-(benzenesulfonyl)pyrrolidin-3-yl]sulfonylphenyl]methyl]-1H-pyrazolo[3,4-b]pyridine-5-carboxamide] | 102 | 198 | 
CC(=O)N1CCCC(S(=O)(=O)c2ccc(CNC(=O)c3cnc4[nH]ncc4c3)cc2)C1 (stereo not shown) [Example 347, N-[[4-[(1-acetyl-3-piperidyl)sulfonyl]phenyl]methyl]-1H-pyrazolo[3,4-b]pyridine-5-carboxamide] | 381 | 640 | 
CC(=O)N1CCC(S(=O)(=O)c2ccc(CNC(=O)c3cnc4[nH]ncc4c3)cc2)C1 (stereo not shown) [Example 348, N-[[4-(1-acetylpyrrolidin-3-yl)sulfonylphenyl]methyl]-1H-pyrazolo[3,4-b]pyridine-5-carboxamide] | 2000 | 2000 | 
CS(=O)(=O)N1CCC(S(=O)(=O)c2ccc(CNC(=O)c3cnc4[nH]ncc4c3)cc2)CC1 [Example 349, N-[[4-[(1-methylsulfonyl-4-piperidyl)sulfonyl]phenyl]methyl]-1H-pyrazolo[3,4-b]pyridine-5-carboxamide] | 73.5 | 52.2 | 
O=C(NCc1ccc(S(=O)(=O)C2CCCN(C(=O)c3ccccc3)C2)cc1)c1cnc2[nH]ncc2c1 (stereo not shown) [Example 350, N-[[4-[(1-benzoyl-3-piperidyl)sulfonyl]phenyl]methyl]-1H-pyrazolo[3,4-b]pyridine-5-carboxamide] | 300 | 258 | 
O=C(NCc1ccc(S(=O)(=O)C2CCN(C(=O)c3ccccc3)C2)cc1)c1cnc2[nH]ncc2c1 (stereo not shown) [Example 351, N-[[4-(1-benzoylpyrrolidin-3-yl)sulfonylphenyl]methyl]-1H-pyrazolo[3,4-b]pyridine-5-carboxamide] | 71.1 | 107 | 
CS(=O)(=O)N1CCCC(S(=O)(=O)c2ccc(CNC(=O)c3cnc4[nH]ncc4c3)cc2)C1 (stereo not shown) [Example 353, N-[[4-[(1-methylsulfonyl-3-piperidyl)sulfonyl)phenyl]methyl]-1H-pyrazolo[3,4-b]pyridine-5-carboxamide] | 3970 | 2000 | 
CS(=O)(=O)N1CCC(S(=O)(=O)c2ccc(CNC(=O)c3cnc4[nH]ncc4c3)cc2)C1 (stereo not shown) [Example 354, N-[[4-(1-methylsulfonylpyrrolidin-3-yl)sulfonylphenyl]methyl]-1H-pyrazolo[3,4-b]pyridine-5-carboxamide] | 413 | 726 | 
O=C(NCc1ccc([S+]([O-])C2CCN(CC(F)(F)F)CC2)cc1)c1cc2ccncc2o1 (stereo not shown) [Example 356, N-[[4-[[1-(2,2,2-trifluoroethyl)-4-piperidyl]sulfinyl]phenyl]methyl]furo[2,3-c]pyridine-2-carboxamide] | 13.5 | 3.25 | 
CCCN1CCC([S+]([O-])c2ccc(CNC(=O)c3cc4ccncc4o3)cc2)CC1 (stereo not shown) [Example 358, N-[[4-[(1-propyl-4-piperidyl)sulfinyl]phenyl]methyl]furo[2,3-c]pyridine-2-carboxamide] | 19.3 |  | 4.58

Further lines, results first:

IC50 (NAMPT) [nM] | IC50 (A2780 cells; Homo sapiens, A2780, 72 h) [nM] | IC50 (A2780 cells) [nM] | SMILES
65.1 | 54 |  | O=C(NCc1ccc(S(=O)(=O)N2CCC3(CCCN3)CC2)cc1)c1ccc2nccn2c1 [Example 321, N-[[4-(1,8-diazaspiro[4.5]decan-8-ylsulfonyl)phenyl]methyl] imidazo[1,2-a]pyridine-6-carboxamide]
43.4 | 39 |  | O=C(NCc1ccc(S(=O)(=O)N2CCOC3(CCCNC3)C2)cc1)c1ccc2nccn2c1 (stereo not shown) [Example 322, N-[[4-(1-oxa-4,8-diazaspiro[5.5]undecan-4-ylsulfonyl)phenyl]methyl] imidazo[1,2-a]pyridine-6-carboxamide]
17.7 | 13.3 |  | NC1CC2(CCN(S(=O)(=O)c3ccc(CNC(=O)c4ccc5nccn5c4)cc3)CC2)C1 [Example 323, N-[[4-[(2-amino-7-azaspiro[3.5]nonan-7-yl)sulfonyl]phenyl]methyl] imidazo[1,2-a]pyridine-6-carboxamide]
19.2 | 24.8 |  | O=C(NCc1ccc(S(=O)(=O)N2CCC3(CCNCC3)CC2)cc1)c1ccc2nccn2c1 [Example 324, N-[[4-(3,9-diazaspiro[5.5]undecan-3-ylsulfonyl)phenyl]methyl] imidazo[1,2-a]pyridine-6-carboxamide]
25.6 | 27.5 |  | O=C(NCc1ccc(S(=O)(=O)N2CCC3(CCCNC3)CC2)cc1)c1ccc2nccn2c1 [Example 325, N-[[4-(2,9-diazaspiro[5.5]undecan-9-ylsulfonyl)phenyl]methyl] imidazo[1,2-a]pyridine-6-carboxamide]
107 |  | 60.1 | O=C(NCc1ccc(S(=O)(=O)N2CCCC3(CCCCN3)C2)cc1)c1ccc2nccn2c1 (stereo not shown) [Example 326, N-[[4-(1,8-diazaspiro[5.5]undecan-8-ylsulfonyl)phenyl]methyl] imidazo[1,2-a]pyridine-6-carboxamide]
1300 | 2000 |  | O=C(NCc1ccc(S(=O)(=O)N2CCOC3CNCC32)cc1)c1ccc2nccn2c1 (stereo not shown) [Example 327, N-[[4-(3,4a,5,6,7,7a-hexahydro-2H-pyrrolo[3,4-b][1,4]oxazin-4-ylsulfonyl)phenyl]methyl] imidazo[1,2-a]pyridine-6-carboxamide]
1680 | 2000 |  | NCC12CC(CN1S(=O)(=O)c1ccc(CNC(=O)c3ccc4nccn4c3)cc1)C2 [Example 328, N-[[4-[[4-(aminomethyl)-3-azabicyclo[2.1.1]hexan-3-yl]sulfonyl]phenyl]methyl) imidazo[1,2-a]pyridine-6-carboxamide]
79.3 | 93.3 |  | O=C(NCc1ccc(S(=O)(=O)N2CC3CNCC3C2)cc1)c1ccc2nccn2c1 (stereo not shown) [Example 329, N-[[4-(2,3,3a,4,6,6a-hexahydro-1H-pyrrolo[3,4-c]pyrrol-5-yIsulfonyl)phenyl]methyl] imidazo[1,2-a]pyridine-6-carboxamide]
22.2 | 42.8 |  | O=C(NCc1ccc(S(=O)(=O)N2CC(C3CCCNC3)c3ccccc32)cc1)c1ccc2nccn2c1 (stereo not shown) [Example 330, N-[[4-[3-(3-piperidyl)indolin-1-yl]sulfonylphenyl]methyl] imidazo[1,2-a]pyridine-6-carboxamide]
355 | 774 |  | O=C(NCc1ccc(S(=O)(=O)N2CCCC23CCNCC3)cc1)c1ccc2nccn2c1 [Example 331, N-[[4-(1,8-diazaspiro[4.5]decan-1-ylsulfonyl)phenyl]methyl] imidazo[1,2-a]pyridine-6-carboxamide]
174 | 171 |  | O=C(NCc1ccc(S(=O)(=O)N2CC3CCNC3C2)cc1)c1ccc2nccn2c1 (stereo not shown) [Example 332, N-[[4-(2,3,3a,4,6,6a-hexahydro-1H-pyrrolo[3,4-b]pyrrol-5-ylsulfonyl)phenyl]methyl] imidazo[1,2-a]pyridine-6-carboxamide]
320 | 286 |  | O=C(NCc1ccc(S(=O)(=O)N2CC3CNCC(C2)O3)cc1)c1ccc2nccn2c1 [Example 333, N-[[4-(9-oxa-3,7-diazabicyclo[3.3.1]nonan-3-ylsulfonyl)phenyl]methyl] imidazo[1,2-a]pyridine-6-carboxamide]
26.7 | 26 |  | O=C(NCc1ccc(S(=O)(=O)N2CCCC3(CCCN3)CC2)cc1)c1ccc2nccn2c1 (stereo not shown) [Example 334, N-[[4-(1,9-diazaspiro[4.6]undecan-9-ylsulfonyl)phenyl]methyl] imidazo[1,2-a]pyridine-6-carboxamide]
965 |  | 2000 | O=C(NCc1ccc(S(=O)(=O)N2CCOC3CNCC32)cc1)c1ccc2nccn2c1 (stereo not shown) [Example 335, N-[[4-(3,4a,5,6,7,7a-hexahydro-2H-pyrrolo[3,4-b][1,4]oxazin-4-ylsulfonyl)phenyl)methyl] imidazo[1,2-a]pyridine-6-carboxamide]
379 |  | 399 | O=C(NCc1ccc(S(=O)(=O)N2CCCC3(CCCCN3)C2)cc1)c1ccc2nccn2c1 (stereo not shown) [Example 336, N-[[4-(1,8-diazaspiro[5.5]undecan-8-ylsulfonyl)phenyl]methyl] imidazo[1,2-a]pyridine-6-carboxamide]
18 | 20.3 |  | O=C(NCc1ccc(S(=O)(=O)C2CCN(S(=O)(=O)c3ccccc3)CC2)cc1)c1cnc2[nH]ncc2c1 [Example 352, N-[[4-[[1-(benzenesulfonyl)-4-piperidyl]sulfonyl]phenyl]methyl]-1H-pyrazolo[3,4-b]pyridine-5-carboxamide]
35 | 22.1 |  | CC(C)N1CCC([S+]([O-])c2ccc(CNC(=O)c3ccc4nccn4c3)cc2)CC1 (stereo not shown) [Example 362, N-[[4-[(1-isopropyl-4-piperidyl)sulfinyl]phenyl]methyl]imidazo[1,2-a]pyridine-6-carboxamide]

From patent US10696692B2, “Amido-benzyl sulfone and sulfoxide derivates” (Forma TM, LLC, priority 2012, dated 2020)
